Consider 8 compounds from ChEMBL document CHEMBL1201862, “PubChem BioAssay data set” (2004).

Test systems include M14; HT-29; SW-620; NCI-H522; BT-549; OVCAR-8; HCT-15; HCT-116; SF-295; UACC-62; PC-3; A498; A549; MDA-N; KM12; NCI-H460; OVCAR-3; EKVX; HCC 2998; Hs-578T.
What all share (experiment): inhibition of tumour cell growth, NCI panel, 48 h

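48-hour exposure; five concentrations; linearly interpolated endpoints. GI50 marks 50% less growth.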 Activity calls are given as the source filed them. Cut-off read from the data, not from the text of the source: active = GI50 up to about 1.1 µM and inactive = higher. Some results are limits rather than exact numbers.

As for `NC(=O)Nc1ccc(S(=O)(=O)Nc2ccc(S(N)(=O)=O)cc2)cc1`, the GI50 with M14, in the experiment with HT-29, in the experiment with SW-620, in the experiment with NCI-H522, in the experiment with BT-549 and in the experiment on OVCAR-8 was > 100 µM (inactive) in each case. Moreover, the GI50 is > 100 µM with HCT-15; > 100 µM (inactive) with HCT-116; > 100 µM (inactive) in the experiment on SF-295; > 100 µM (inactive) in the experiment with UACC-62; > 100 µM (inactive) with PC-3; > 100 µM (inactive) in the experiment with A498. Also, the GI50 in the experiment on A549, in the experiment on MDA-N, in the experiment with KM12, in the experiment on NCI-H460, in the experiment on OVCAR-3 and with EKVX was > 100 µM (inactive) in each case.

With `CC(C)S(=O)(=O)ON1C(=O)c2ccc(N(C)C)cc2C1=O`, the GI50 in the experiment on M14 is 17.2 µM (inactive); in the experiment on HT-29, 22.8 µM (inactive); in the experiment with SW-620, 11.4 µM (inactive); with NCI-H522, 1.52 µM (inactive); with OVCAR-8 it was 2.65 µM (inactive); in the experiment with HCC 2998 it was 13.3 µM (inactive). In addition, the GI50 was 13.6 µM in the experiment on HCT-15; 14.8 µM (inactive) with HCT-116; 30.9 µM (inactive) in the experiment on SF-295; 15.5 µM (inactive) in the experiment with UACC-62; > 10 µM (inactive) with PC-3; > 43.7 µM (inactive) in the experiment on A498. The GI50 was 25 µM (inactive) in the experiment with A549; 4.01 µM (inactive) with MDA-N; > 10 µM (inactive) in the experiment with Hs-578T; 21.4 µM (inactive) with KM12; 19.9 µM (inactive) in the experiment on NCI-H460; 8.91 µM (inactive) in the experiment with OVCAR-3. Besides, the GI50 in the experiment on EKVX is 22.3 µM (inactive).

With `CCOC(=O)/C=C\[C@H]1OC(C)(C)O[C@H]1[C@H](O)[C@H]1COC(C)(C)O1`, the GI50 in the experiment with M14 was 17.8 µM (inactive); in the experiment on HT-29 it was 20.7 µM (inactive); in the experiment with SW-620, 19.6 µM (inactive); with NCI-H522, 13.8 µM (inactive); in the experiment with BT-549 it was 22 µM (inactive); with OVCAR-8, 29.8 µM (inactive). For the same compound, the GI50 in the experiment with HCC 2998 is 11.3 µM (inactive); in the experiment on HCT-15, 17 µM; with HCT-116, 19.7 µM (inactive); in the experiment with SF-295, > 100 µM (inactive); in the experiment on UACC-62, 23.7 µM (inactive); with PC-3, 20.7 µM (inactive). For the same compound, the GI50 is 16.6 µM (inactive) in the experiment with A498; > 100 µM (inactive) in the experiment on A549; 26.8 µM (inactive) with Hs-578T; 77.3 µM (inactive) with KM12; 27 µM (inactive) with NCI-H460; 17.4 µM (inactive) in the experiment on OVCAR-3. Besides, the GI50 with EKVX is 21.1 µM (inactive).

As to `Cc1ccc(C(=O)c2[nH]c(Nc3cc(C)ccn3)c(C(=S)Nc3ccccc3)c2N)cc1`, the GI50 with M14, with HT-29, in the experiment on SW-620, with NCI-H522, in the experiment with BT-549 and in the experiment on OVCAR-8 was > 100 µM (inactive) each time. Further, the GI50 in the experiment on HCC 2998 was > 100 µM (inactive); in the experiment on HCT-15, > 100 µM; with HCT-116 it was > 100 µM (inactive); in the experiment with SF-295, > 100 µM (inactive); in the experiment on UACC-62, > 100 µM (inactive); in the experiment with A498, > 100 µM (inactive). Also, the GI50 in the experiment with A549, in the experiment on MDA-N, in the experiment on Hs-578T, in the experiment with KM12, in the experiment on NCI-H460 and with OVCAR-3 was > 100 µM (inactive) in each case. Also, in the experiment on EKVX, the GI50 is > 100 µM (inactive).

Consider `CCCCCC(=O)OC[n+]1ccc2c(C)c3[nH]c4ccc(OC)cc4c3c(C)c2c1`, for which the GI50 was 0.622 µM (active) in the experiment with M14; 0.0897 µM (active) in the experiment with HT-29; 0.0735 µM (active) in the experiment on SW-620; 0.566 µM (active) in the experiment with NCI-H522; 0.112 µM (active) in the experiment on OVCAR-8; 0.543 µM (active) in the experiment with HCC 2998. Moreover, the GI50 is 0.169 µM with HCT-15; 0.0482 µM (active) in the experiment on HCT-116; 0.395 µM (active) with SF-295; 0.966 µM (active) in the experiment on UACC-62; 0.193 µM (active) in the experiment with PC-3; 1.07 µM (active) in the experiment on A498. The GI50 in the experiment on A549 is 0.284 µM (active); with MDA-N it was 0.332 µM (active); with Hs-578T it was 1.11 µM (active); in the experiment with KM12, 0.225 µM (active); with NCI-H460, 0.0325 µM (active); in the experiment on OVCAR-3, > 100 µM (inactive). The GI50 with EKVX was 0.925 µM (active).

With `CCCCCC1=C2C(c3ccc(OC)cc3)=C(N)C(c3ccc(OC)cc3)=C3NC(=O)C(C=C1)C32` (configuration not stated), the GI50 was 59.7 µM (inactive) with M14; > 100 µM (inactive) in the experiment on HT-29; 49.2 µM (inactive) with SW-620; 22.4 µM (inactive) in the experiment on NCI-H522; 96.4 µM (inactive) with BT-549; 30.3 µM (inactive) in the experiment with OVCAR-8. Moreover, the GI50 is > 100 µM (inactive) in the experiment on HCC 2998; > 100 µM with HCT-15; 57.5 µM (inactive) in the experiment with HCT-116; 36.3 µM (inactive) with SF-295; 53.1 µM (inactive) with UACC-62; 27.7 µM (inactive) in the experiment on PC-3. The GI50 was 43 µM (inactive) with A498; 29.7 µM (inactive) with A549; 61.4 µM (inactive) in the experiment with MDA-N; 59.6 µM (inactive) in the experiment on KM12; 28.1 µM (inactive) in the experiment on NCI-H460; 57.1 µM (inactive) in the experiment with OVCAR-3. In addition, the GI50 in the experiment on EKVX was 92.3 µM (inactive).

Regarding `Cc1ccccc1-n1c(=O)c2ncn(CCCl)c2n(-c2ccccc2C)c1=S`, the GI50 in the experiment on M14 was > 100 µM (inactive); in the experiment on HT-29, > 100 µM (inactive); in the experiment with SW-620, > 100 µM (inactive); in the experiment with NCI-H522 it was 38.5 µM (inactive); in the experiment with BT-549, > 100 µM (inactive); with OVCAR-8 it was > 100 µM (inactive). Further, the GI50 in the experiment with HCC 2998 was > 100 µM (inactive); in the experiment on HCT-15, > 100 µM; in the experiment on HCT-116, > 100 µM (inactive); with SF-295 it was > 100 µM (inactive); in the experiment on UACC-62 it was > 100 µM (inactive); in the experiment on PC-3 it was 73.1 µM (inactive). Further, the GI50 in the experiment with A498, in the experiment with A549, in the experiment on KM12, with NCI-H460, in the experiment on OVCAR-3 and in the experiment with EKVX was > 100 µM (inactive) in each case.

As to `COc1ccc(-c2cc(-c3cc4cc(Br)ccc4nc3Cl)c(C#N)c(N)n2)cc1`, the GI50 in the experiment with M14, in the experiment on HT-29, with SW-620, in the experiment with NCI-H522, with BT-549 and with OVCAR-8 was > 12.5 µM (inactive) throughout. In addition, the GI50 in the experiment on HCT-15 was > 12.5 µM; in the experiment with HCT-116, > 12.5 µM (inactive); in the experiment with SF-295 it was > 12.5 µM (inactive); in the experiment with PC-3 it was > 12.5 µM (inactive); in the experiment on A549, > 12.5 µM (inactive); with MDA-N it was > 12.5 µM (inactive). The GI50 in the experiment with Hs-578T, with KM12, in the experiment with OVCAR-3 and with EKVX was > 12.5 µM (inactive) each time.
